In US20250235455A1, “AQUEOUS TICAGRELOR SOLUTIONS, METHOD OF MANUFACTURING AND USES” (HYLORIS DEVELOPMENTS SA, priority 2022, published 2025):

Experiment: Storage stability in amber glass vials at pH 7, 7.5 and 8, 19 mM buffer
Type: physicochemical
Details: for Acetal impurity / Amine impurity / Description / Regiomer / Sum Impurities >0.05 / Total impurity / Triol impurity / pH / Assay: HPβCD 40% w/w; for Assay: in %
Experimental: To optimize the HPβCD concentration and the pH of the solution for intravenous use, a 12 week/3 months stability study was conducted. […] Its stability was tested at regular intervals.
A comparison of stability profile at 3 different pH—7, 7.5 and 8—was carried out as below, the manufacturing process for all 3 formulations was kept constant with buffer strength at 19 mM.

[1] = 19 mM pH 7 Phosphate Buffer, 1 M
[2] = 19 mM pH 7 Phosphate Buffer, 2 M
[3] = 19 mM pH 7 Phosphate Buffer, 3 M
[4] = 19 mM pH 7 Phosphate Buffer, T0
[5] = 19 mM pH 7.5 Phosphate Buffer, 1 M
[6] = 19 mM pH 7.5 Phosphate Buffer, 2 M
[7] = 19 mM pH 7.5 Phosphate Buffer, 3 M
[8] = 19 mM pH 7.5 Phosphate Buffer, T0
[9] = 19 mM pH 8 Phosphate buffer, 1 M
[10] = 19 mM pH 8 Phosphate buffer, 2 M
[11] = 19 mM pH 8 Phosphate buffer, 3 M
[12] = 19 mM pH 8 Phosphate buffer, T0

For CCCSc1nc(N[C@@H]2C[C@H]2c2ccc(F)c(F)c2)c2nnn([C@@H]3C[C@H](OCCO)[C@@H](O)[C@H]3O)c2n1 [Ticagrelor, (1S,2S,3R,5S)-3-{7-[(1R,2S)-2-(3,4-difluorophenyl)cyclopropylamino]5-(propylthio)-3H-(1,2,3)triazolo (4,5-D)pyrimidin-3-yl}-5-(2 hydroxyethoxy)cyclopentane-1,2-diol], the Acetal impurity [1] was 0.05%, the Amine impurity [1] was 0.04% and the Description [1] was “clear”. For the same compound, the Regiomer [1] was 0.03%, the “Sum Impurities >0.05” value [1] was 0.05% and the Total impurity [1] was 0.27%. The Triol impurity [1] was 0.02%, the pH [1] was 7.34 and the Assay [1] was 99.73. For the same compound, the Acetal impurity [2] was 0.05%, the Amine impurity [2] was 0.04% and the Description [2] was “clear”. The Regiomer [2] was 0.06%, the “Sum Impurities >0.05” value [2] was 0.11% and the Total impurity [2] was 0.34%. It also gave a Triol impurity [2] of 0.04%, a pH [2] of 7.34 and an Assay [2] of 99.81. For the same compound, the Acetal impurity [3] was 0.05%, the Amine impurity [3] was 0.06% and the Description [3] was “clear”. For the same compound, the Regiomer [3] was 0.11%, the “Sum Impurities >0.05” value [3] was 0.22% and the Total impurity [3] was 0.40%. For the same compound, the Triol impurity [3] was 0.04%, the pH [3] was 7.30 and the Assay [3] was 98.51. For the same compound, the Acetal impurity [4] was 0.05%, the Amine impurity [4] was 0.04% and the Description [4] was “clear”. For the same compound, the Regiomer [4] was 0.00%, the “Sum Impurities >0.05” value [4] was 0.22% and the Total impurity [4] was 0.41%. It also gave a Triol impurity [4] of 0.05%, a pH [4] of 7.33 and an Assay [4] of 98.95. The Acetal impurity [5] was 0.05%, the Amine impurity [5] was 0.05% and the Description [5] was “clear”. The Regiomer [5] was 0.01%, the “Sum Impurities >0.05” value [5] was 0.14% and the Total impurity [5] was 0.32%. The Triol impurity [5] was 0.05%, the pH [5] was 7.50 and the Assay [5] was 104.47. The Acetal impurity [6] was 0.05%, the Amine impurity [6] was 0.05% and the Description [6] was “clear”. The Regiomer [6] was 0.04%, the “Sum Impurities >0.05” value [6] was 0.15% and the Total impurity [6] was 0.29%. For the same compound, the Triol impurity [6] was 0.05%, the pH [6] was 7.48 and the Assay [6] was 102.59. The Acetal impurity [7] was 0.05%, the Amine impurity [7] was 0.05% and the Description [7] was “clear”. The Regiomer [7] was 0.08%, the “Sum Impurities >0.05” value [7] was 0.23% and the Total impurity [7] was 0.41%. For the same compound, the Triol impurity [7] was 0.04%, the pH [7] was 7.55 and the Assay [7] was 102.31. The Acetal impurity [8] was 0.05%, the Amine impurity [8] was 0.04% and the Description [8] was “clear”. The Regiomer [8] was 0.00%, the “Sum Impurities >0.05” value [8] was 0.11% and the Total impurity [8] was 0.31%. The Triol impurity [8] was 0.04%, the pH [8] was 7.40 and the Assay [8] was 104.27. The Acetal impurity [9] was 0.05%, the Amine impurity [9] was 0.05% and the Description [9] was “clear”. For the same compound, the Regiomer [9] was 0.01%, the “Sum Impurities >0.05” value [9] was 0.09% and the Total impurity [9] was 0.26%. It also gave a Triol impurity [9] of 0.03%, a pH [9] of 8.10 and an Assay [9] of 105.88. For the same compound, the Acetal impurity [10] was 0.05%, the Amine impurity [10] was 0.05% and the Description [10] was “clear”. The Regiomer [10] was 0.03%, the “Sum Impurities >0.05” value [10] was 0.15% and the Total impurity [10] was 0.32%. The Triol impurity [10] was 0.05%, the pH [10] was 8.04 and the Assay [10] was 105.46. For the same compound, the Acetal impurity [11] was 0.05%, the Amine impurity [11] was 0.07% and the Description [11] was “clear”. For the same compound, the Regiomer [11] was 0.06%, the “Sum Impurities >0.05” value [11] was 0.23% and the Total impurity [11] was 0.37%. The Triol impurity [11] was 0.05%, the pH [11] was 8.03 and the Assay [11] was 104.46. For the same compound, the Acetal impurity [12] was 0.05%, the Amine impurity [12] was 0.04% and the Description [12] was “clear”. The Regiomer [12] was 0.00%, the “Sum Impurities >0.05” value [12] was 0.25% and the Total impurity [12] was 0.43%. It also gave a Triol impurity [12] of 0.06%, a pH [12] of 8.07 and an Assay [12] of 103.25. For the same compound, the “Stability of solution in HPβCD” value (pH range of 7 to 8) was “stable”.
